The values below come from publication PMC7869897, “Structure–functional relationship of cellular retinoic acid-binding proteins I and II interacting with natural and synthetic ligands” (Acta Crystallographica. Section D, Structural Biology, 2021).

Type in all cases: binding
The target in assay [1] is T1, CRABPI (Homo sapiens, UniProt P29762, L29C).
T1 construct: gene CRABP1; His-tagged, tag cleaved with thrombin
Nature of the assay: fluorescent probe displaced by DC645.

In assay [2] the target is T2, CRABPII (Homo sapiens, UniProt P29373).
T2 construct: gene CRABP2; GST-tagged, tag cleaved with thrombin
T2 sequence (P29373 1-138): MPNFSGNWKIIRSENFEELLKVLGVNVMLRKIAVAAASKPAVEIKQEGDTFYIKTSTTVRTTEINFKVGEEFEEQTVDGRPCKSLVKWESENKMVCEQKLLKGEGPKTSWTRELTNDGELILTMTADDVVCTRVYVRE
Nature of the assay: solvatochromic fluorescence probe, with and without CRABPII; displaced by DC645.

Assay [3] addresses T2, CRABPII. Put plainly: co-crystal structure ([…] Å).
Assay [4] deals with T1, CRABPI. Nature of the assay: co-crystal structure ([…] Å) and competitive fluorescence displacement of DC271.
Assay [5] has as its target T2, CRABPII. The description is as above.
The target of assay [6] is T1, CRABPI. Nature of the assay: crystal structure ([…] Å); co-purified fatty acid density modelled as myristic acid.

T1 sequence (P29762 whole entry L29C): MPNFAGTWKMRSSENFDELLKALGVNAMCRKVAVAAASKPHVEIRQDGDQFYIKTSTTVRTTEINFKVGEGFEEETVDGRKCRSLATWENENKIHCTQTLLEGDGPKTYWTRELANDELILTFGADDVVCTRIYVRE

`CC(C)N1CCC(C)(C)c2cc(C#Cc3ccc(C(=O)O)cc3)ccc21` [DC271]: in assay [1], the “fluorescent probe displaced by DC645” value is “Competitive displacement of DC271 from CRABPI-L29C by DC645 was carried out”. The “solvatochromic fluorescence probe, with and without CRABPII; displaced by DC645” value in assay [2] is on record as “DC271 presents a stark solvatochromic effect when in the presence of CRABPII owing to inclusion into the binding site”.
Take `CC(C)N1CCC(C)(C)c2ccc(-c3ccc(/C=C/C(=O)O)cc3)cc21` [DC479]: the “co-crystal structure (1.80 Å)” value in assay [3] is reported as “DC479 occupies the binding site fully, with its carboxylic acid head buried adjacent to the canonical binding triad”.
Turning to `CC1(C)CCC(C)(C)c2nc(C#Cc3ccc(C(=O)O)cc3)cnc21` [DC645], the Kd (commonly the equilibrium constant for the complex coming apart) in assay [4] came out at 1940 ± 110 nM; in assay [5] it was 250 ± 60 nM.
Regarding `CCCCCCCCCCCCCC(=O)O` [MYR, myristic acid], the “crystal structure (1.64 Å); co-purified fatty acid density modelled as myristic” value in assay [6] is given as “a conserved water molecule hydrogen-bonded to the associated ligand modelled as the 14-carbon myristic acid”.
